Laboratory results reported in patent EP1724268A1, “COMPOUND HAVING TGF-BETA INHIBITORY ACTIVITY AND PHARMACEUTICAL COMPOSITION CONTAINING SAME” (KIRIN BEER KABUSHIKI KAISHA, priority 2004, dated 2005).

Columns and labels:
[1] = tested on: TGFβ signal; assay: TGFβ signal inhibitory activity, (SBE)4-Luc reporter in A549 cells (Test Examples 1A and 1B); assay type: cell-based, human; conditions: Homo sapiens, A549, TGFβ-1 2 ng/ml, 4 hr, Table 1A, read-out: TGFβ inhibition rate, %; for inhibition at 3 µM: test compound 3 µM; for inhibition at 10 µM: test compound 10 µM
Summary of the method: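 Stable A549 line carrying (SBE)4-Luc Smad3-binding reporter treated with compound plus TGFβ-1 (2 ng/ml) for 4 hr; luciferase read by chemiluminescence. Percent inhibition relative to TGFβ-only and untreated cells, tested at 3 µM and 10 µM, some also at 1 µM.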

[2] = tested on: A549 cells; assay: Cell growth inhibitory activity using A549 cells (Test Example 6); assay type: cell-based, Human; conditions: for inhibition at 30 µM: Homo sapiens, A549, compound 30 µM, 5% serum, 40 hr, counting kit-8, read-out: Cell growth inhibition rate (%); for inhibitory activity against cell growth or BMP4 signals: as compared with Example 261 or Example 269 described in WO 03/00660; for inhibitory activity against cell growth of A549 cells: as compared with Example 274 described in WO 03/00660
Description: Human lung cancer epithelial cells (A549) (available from ATCC) were suspended to a concentration of 3 × 10^4/ml in a DMEM/F12 medium containing 10%FCS, and the suspension was inoculated in 100 µl portions in wells of a 96-well plate. On the following day, a stock solution of the test compound which had been adjusted to 10 mM with DMSO was adjusted with a serum-free DMEM/F12 medium to a dose (60 µM) which was twice the evaluation concentration. After removing the medium inoculated in the 96 wells on the previous day, the solution was added in 50 µl portions to the plate. Next, a DMEM/F12 medium containing 10% serum was added in 50 µl portions to the wells, followed by culturing at 37°C for 40 hr. The final concentration of the serum and the concentration of the evaluation compound were 5% and 30 µM, respectively. The compounds according to the present invention synthesized in the working example were used as the test compound. […]
After 40 hr, the culture was removed, and 100 µl of a solution prepared by diluting counting kit-8 (purchased from Dojindo) with a serum-free F12 medium by 10 times was added, followed by culturing at 37°C for 20 to 30 min. After the confirmation of suitable color development, the absorbance at 450 nm was measured with ARVO (purchased from Wallach Bethold Japan). The cell growth inhibition in the test compound added wells were determined by presuming the absorbance value in the test compound-free wells to be 0% and the absorbance value in the cell-free wells to be 100%.

[3] = tested on: BMP4 signal; assay: BMP signal inhibitory activity, p(GCCG)12-Luc reporter in HepG2 cells (Test Example 7); assay type: cell-based, human; conditions: for Selectivity for BMP (times): Inhibitory activity against BMP4 signal (IC50)/Inhibitory activity against TGFβ signal (IC50), HepG2 reporter cells, BMP4 20 ng/ml, TGFβ-1 2 ng/ml, 4 hr; for inhibitory activity against BMP4 signals: as compared with Example 274 described in WO 03/00660
Description: The inhibitory activity of the compounds according to the present invention against BMP signals was studied using a cell line through which TGFb and BMP signals can be simultaneously observed. Specifically, the cell lines capable of detecting the two signal was generated by transfecting reporter plasmids for detection of TGFb and BMP signals into a human hepatocarcinoma cell line HepG2(available from ATCC) and was used as evaluation cells. For detection of TGF-beta signal, the plasmid having four tandem binding sequences of Smad2/3, TGF-beta signal transducers, to the upstream of a luciferases gene were used as a reporter plasmid (p(SBE)4-Luc/hygro). For detection of BMP signal, the plasmid having twelve tandem binding sequences of Smadl/5/8, BMP signal transducers, to the upstream of a luciferases gene were used as a reporter plasmid (p(GCCG)12-Luc/neo), according to the method described in Mol Biol Cell. 2000 11(2): 555-65. The test compound and TGFβ-1 (2 ng/ml) or BMP4 (20 ng/ml) were added to the cells, and the mixture was cultured for 4 hr. The compounds according to the present invention synthesized in the working example were used as the test compound. […] After the culture, the luciferase activity of the cells was measured by chemiluminescence (Steady Glo (trademark) luciferase assay system, available from Promega). Likewise, the luciferase activity was measured as control for the culture of cells with only TGFβ or BMP4 added thereto and the culture of cells with the addition of none of TGFβ, BMP4 and the test compound. The inhibitory activity IC50 of the compounds against TGFβ and BMP4 was calculated based on the results of measurement, and the kinase selectivity for BMP4 was determined by the following method. Kinase selectivity for BMP4 (times) = Inhibitory activity against BMP4 signal (IC50)/Inhibitory activity against TGFβ signal (IC50)

Row | SMILES | inhibition at 3 µM [1] [%] | inhibition at 10 µM [1] [%] | inhibition at 30 µM [2] [%] | inhibitory activity against cell growth or BMP4 signals [2] | Selectivity for BMP (times) [3] [times] | inhibitory activity against cell growth of A549 cells [2] | inhibitory activity against BMP4 signals [3]
1 | CCc1ccc(Oc2ccnc3ccc(OCCO)cc23)c(-c2ccccn2)n1 [Compound 181, 2-[4-(6-Ethyl-[2,2']bipyridinyl-3-yloxy)-quinolin-6-yloxy]-ethanol] | 100 | 100 | -7 | reduced inhibitory activity | 308 | – | –
2 | CCc1ccc(Oc2ccnc3ccc(OCCN)cc23)c(-c2ncccn2)n1 [Compound 204, 2-[4-(6-Ethyl-2-pyrimidin-2-yl-pyridin-3-yloxy)-quinolin-6-yloxy]-ethylamine] | 84 | – | -9 | – | – | reduced inhibitory activity | reduced inhibitory activity
3 | CCc1ccc(Oc2ccnc3cc(C(N)=O)c(O)cc23)c(-c2ncccn2)n1 [Compound 194, 4-(6-Ethyl-2-pyrimidin-2-yl-pyridin-3-yloxy)-6-hydroxy-quinoline-7-carboxylic acid amide] | 60 | – | -15 | – | 51 | reduced inhibitory activity | reduced inhibitory activity
4 | Cc1ccc(Oc2ccnc3ccc(O)cc23)c(-c2ncccn2)n1 [Compound 201, 4-(6-Methyl-2-pyrimidin-2-yl-pyridin-3-yloxy)-quinolin-6-ol] | 82 | – | 2 | – | – | reduced inhibitory activity | reduced inhibitory activity
5 | CCc1ccc(Oc2ccnc3ccc(OCCO)cc23)c(-c2ncccn2)n1 [Compound 192, 2-[4-(6-Ethyl-2-pyrimidin-2-yl-pyridin-3-yloxy)-quinolin-6-yloxy]-ethanol] | 97 | 100 | 3 | – | > 176 | reduced inhibitory activity | reduced inhibitory activity
6 | Cc1cc(Oc2ccnc3ccc(OCCO)cc23)c(-c2ncccn2)nc1C [Compound 200, 2-[4-(5,6-Dimethyl-2-pyrimidin-2-yl-pyridin-3-yloxy)-quinolin-6-yloxy]-ethanol] | 85 | – | 0 | – | 75 | reduced inhibitory activity | reduced inhibitory activity
7 | CCc1ccc(Oc2ccnc3ccc(OS(C)(=O)=O)cc23)c(-c2ccccn2)n1 [Compound 187, 4-(6-Ethyl-[2,2']bipyridinyl-3-yloxy)-quinolin-6-yl methanesulfonate] | 100 | 100 | 0 | reduced inhibitory activity | 72 | – | –
8 | Cc1ccc(Oc2ccnc3ccc(OCCO)cc23)c(-c2ccccn2)n1 [Compound 205, 2-[4-(6-Methyl-[2,2']bipyridyl-3-yloxy)-quinolin-6-yloxy]-ethanol] | 98 | – | 9 | reduced inhibitory activity | – | – | –
9 | CCc1ccc(Oc2ccnc3ccc(OCCOC(C)=O)cc23)c(-c2ccccn2)n1 [Compound 182, 2-[4-(6-Ethyl-[2,2']bipyridinyl-3-yloxy)-quinolin-6-yloxy]-ethyl acetate] | 99 | 100 | -8 | reduced inhibitory activity | 195 | – | –
10 | CCc1ccc(Oc2ccnc3ccc(OC(C)=O)cc23)c(-c2ccccn2)n1 [Compound 186, 4-(6-Ethyl-[2,2']bipyridinyl-3-yloxy)-quinolin-6-ylacetate] | 100 | 100 | -2 | – | – | – | –
11 | CCc1ccc(Oc2ccnc3ccc(OCCOC(C)=O)cc23)c(-c2ncccn2)n1 [Compound 206, 2-[4-(6-Ethyl-2-pyrimidin-2-yl-pyridin-3-yloxy)-quinolin-6-yloxy]-ethyl acetate] | 89 | – | -1 | – | – | reduced inhibitory activity | reduced inhibitory activity
12 | CCc1ccc(Oc2ccnc3cc(F)c(OCCO)cc23)c(-c2ncccn2)n1 [Compound 225, 2-[4-(6-Ethyl-2-pyrimidin-2-yl-pyridin-3-yloxy)-7-fluoro-quinolin-6-yloxy]-ethanol] | 89 | 99 | 8 | – | – | reduced inhibitory activity | reduced inhibitory activity
13 | Cc1ccc(Oc2ccnc3ccc(OCCO)cc23)c(-c2ncccn2)n1 [Compound 202, 2-[4-(6-Methyl-2-pyrimidin-2-yl-pyridin-3-yloxy)-quinolin-6-yloxy]-ethanol] | 86 | – | 8 | – | 21.4 | reduced inhibitory activity | reduced inhibitory activity
14 | CCc1ccc(Oc2ccnc3ccc(O)cc23)c(-c2ccccn2)n1 [Compound 184, 4-(6-Ethyl-[2,2']bipyridinyl-3-yloxy)-quinolin-6-ol] | 100 | 100 | 8 | reduced inhibitory activity | > 428 | – | –
15 | Cc1ccc(Oc2ccnc3ccc(OCCCO)cc23)c(-c2ncccn2)n1 [Compound 222, 3-[4-(6-Methyl-2-pyrimidin-2-yl-pyridin-3-yloxy)-quinolin-6-yloxy]-propan-1-ol] | 91 | 100 | 6 | – | – | reduced inhibitory activity | reduced inhibitory activity
16 | CCc1ccc(Oc2ccnc3cc(C(N)=O)c(OC)cc23)c(-c2ccccn2)n1 [Compound 179, 4-(6-Ethyl-[2,2']bipyridinyl-3-yloxy)-6-methoxy-quinoline-7-carboxylic acid amide] | 100 | 100 | -3 | reduced inhibitory activity | – | – | –
17 | Cc1ccc(Oc2ccnc3cc(C(N)=O)ccc23)c(-c2ncccn2)n1 [Compound 217, 4-(6-Methyl-2-pyrimidin-2-yl-pyridin-3-yloxy)-quinoline-7-carboxylic acid amide] | 90 | 100 | 4 | – | – | reduced inhibitory activity | reduced inhibitory activity
